Assay results from EP4644383A1 (Jiangsu Yahong Meditech Co., Ltd., priority 2022, dated 2024).

molecular target: T1, FGFR3 (Homo sapiens, UniProt P22607); assay: FGFR3 kinase activity inhibition assay (LanthaScreen TR-FRET); assay type: biochemical; settings: not given
T1 construct: FGFR3's cytoplasmic domain [436-806 (terminal) amino acids]; purchased Carna 08-135
Experimental: PV3552) and 10 mM EDTA were added to quench the kinase reaction, and incubated at 22°C for 60 minutes. • ⑤ The reaction was measured using a PerkinElmer EnVision multimode plate reader through TR-FRET dual wavelength detection. • 1. The RFU values were copied from the Envision program. • 2. The ratio of RFU 520nm/RFU 495nm was calculated. • 3. The value of the ratio was converted to a percentage inhibition value. % Inhibition = (max-data)/(max-min) × 100 [formula] "Min" represents the ratio of the control without enzyme, "max" represents the ratio of the DMSO control, and "data" represents the ratio of the compounds in wells with different concentrations. […] "Top" refers to the maximum response, "Bottom" refers to the minimum response, and "HillSlope" refers to the slope of the curve. According to the same method as that in the FGFR1 kinase activity inhibition assay, the inhibitory activities against FGFR2, FGFR3 and FGFR4 were tested using FGFR2's cytoplasmic domain [399-821 (terminal) amino acids] (Carna: 08-134), FGFR3's cytoplasmic domain [436-806 (terminal) amino acids] (Carna: 08-135) and FGFR4's cytoplasmic domain [460-802 (terminal) amino acids] (Carna: 08-136), respectively. […]

T1 sequence (P22607 436-806): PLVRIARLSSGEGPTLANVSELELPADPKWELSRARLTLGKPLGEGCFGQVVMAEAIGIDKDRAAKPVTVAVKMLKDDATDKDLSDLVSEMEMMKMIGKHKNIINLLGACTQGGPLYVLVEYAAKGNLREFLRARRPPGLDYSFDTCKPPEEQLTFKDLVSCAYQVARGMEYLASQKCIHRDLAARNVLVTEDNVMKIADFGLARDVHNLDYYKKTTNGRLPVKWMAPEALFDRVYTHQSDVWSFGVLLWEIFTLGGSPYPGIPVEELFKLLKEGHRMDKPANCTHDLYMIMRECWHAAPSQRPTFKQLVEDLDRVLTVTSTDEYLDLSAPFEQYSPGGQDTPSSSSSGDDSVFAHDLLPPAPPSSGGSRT

Structure (SMILES) | IC50
C[C@@H](Oc1ccc2[nH]nc(-c3ccc(N4CCOCC4)nc3)c2n1)c1c(Cl)cncc1Cl [Example 33, (R)-4-(5-(5-(1-(3,5-dichloropyridin-4-yl)ethoxy)-1H-pyrazolo[4,3-b]pyridin-3-yl)pyridin-2-yl)morpholine] | 10 to 100 nM
C[C@@H](Oc1ccc2[nH]nc(-c3cnn(CC(C)(C)O)c3)c2n1)c1c(Cl)cncc1Cl [Example 38, (R)-1-(4-(5-(1-(3,5-dichloropyridin-4-yl)ethoxy)-1H-pyrazolo[4,3-b]pyridin-3-yl)-1H-pyrazol-1-yl)-2-methylpropan-2-ol] | 10 to 100 nM

same assay, conditions: FGFR3 kinase, TR-FRET; read-out: IC50 (nM) FGFR3

IC50 | Structure (SMILES)
> 100 nM | CC(C)c1cc(O[C@H](C)c2c(Cl)cncc2Cl)cc2c(-c3cnn(C)c3)n[nH]c12 [Example 6, (R)-5-(1-(3,5-dichloropyridin-4-yl)ethoxy)-7-isopropyl-3-(1-methyl-1H-pyrazol-4-yl)-1H-indazole]
> 100 nM | Cc1c[nH]c(-c2n[nH]c3c(C)cc(O[C@H](C)c4c(Cl)cncc4Cl)cc23)n1 [Example 9, (R)-5-(1-(3,5-dichloropyridin-4-yl)ethoxy)-7-methyl-3-(4-methyl-1H-imidazol-2-yl)-1H-indazole]
> 100 nM | C[C@@H](Oc1ccc2[nH]nc(-c3cnn4ccccc34)c2n1)c1c(Cl)cncc1Cl [Example 43, (R)-5-(1-(3,5-dichloropyridin-4-yl)ethoxy)-3-(pyrazolo[1,5-a]pyridin-3-yl)-1H-pyrazolo[4,3-b]pyridine]
> 100 nM | C[C@@H](Oc1ccc2[nH]nc(-c3cnn4c3CCCC4)c2n1)c1c(Cl)cncc1Cl [Example 44, (R)-5-(1-(3,5-dichloropyridin-4-yl)ethoxy)-3-(4,5,6,7-tetrahydropyrazolo[1,5-a]pyridin-3-yl)-1H-pyrazolo[4,3-b]pyridine]
10 to 100 nM | CC(C)n1cc(-c2n[nH]c3ccc(O[C@H](C)c4c(Cl)cncc4Cl)nc23)cn1 [Example 47, (R)-5-(1-(3,5-dichloropyridin-4-yl)ethoxy)-3-(1-isopropyl-1H-pyrazol-4-yl)-1H-pyrazolo[4,3-b]pyridine]
> 100 nM | CC(C)Cn1cc(-c2n[nH]c3ccc(O[C@H](C)c4c(Cl)cncc4Cl)nc23)cn1 [Example 51, (R)-5-(1-(3,5-dichloropyridin-4-yl)ethoxy)-3-(1-isobutyl-1H-pyrazol-4-yl)-1H-pyrazolo[4,3-b]pyridine]
> 100 nM | Cn1cc(-c2n[nH]c3ccc(C(=O)NCC(C)(C)O)cc23)cn1 [Example 67, N-(2-hydroxy-2-methylpropyl)-3-(1-methyl-1H-pyrazol-4-yl)-1H-indazole-5-carboxamide]
> 100 nM | Cn1cc(-c2n[nH]c3ccc(C(=O)NCC4CNC4)cc23)cn1 [Example 68, N-(azetidin-3-ylmethyl)-3-(1-methyl-1H-pyrazol-4-yl)-1H-indazole-5-carboxamide]
> 100 nM | Cn1cc(-c2n[nH]c3ccc(C(=O)NCC4CCCNC4)cc23)cn1 (stereo not shown) [Example 69, 3-(1-methyl-1H-pyrazol-4-yl)-N-(piperidin-3-ylmethyl)-1H-indazole-5-carboxamide]
> 100 nM | CNCCNC(=O)c1cc(F)c2[nH]nc(-c3cnn(CCN4CCOCC4)c3)c2c1 [Example 70, 7-fluoro-N-(2-(methylamino)ethyl)-3-(1-(2-morpholinoethyl)-1H-pyrazol-4-yl)-1H-indazole-5-carboxamide]
> 100 nM | CNCCNC(=O)c1cc2c(-c3cnn(C)c3)n[nH]c2cc1-c1cc(OC)cc(OC)c1 [Example 71, 6-(3,5-dimethoxyphenyl)-3-(1-methyl-1H-pyrazol-4-yl)-N-(2-(methylamino)ethyl) -1H-indazole-5-carboxamide]
> 100 nM | CNCCNC(=O)c1cc2c(-c3cnn(C)c3)n[nH]c2cc1OC [Example 72, 6-methoxy-3-(1-methyl-1H-pyrazol-4-yl)-N-(2-(methylamino)ethyl)-1H-indazole-5-carboxamide]
> 100 nM | CNCCNC(=O)c1cc2c(-c3cnn(C)c3)n[nH]c2cc1F [Example 73]
> 100 nM | CNCCn1cc(-c2ccc3[nH]nc(-c4nc(C)c[nH]4)c3c2)nn1 [Example 75, N-methyl-2-(4-(3-(4-methyl-1H-imidazol-2-yl)-1H-indazol-5-yl)-1H-1,2,3-triazol-1-yl)ethan-1-amine]
> 100 nM | Cc1cccc(C)c1NC(=O)c1ccc2[nH]nc(-c3cnn(C)c3)c2c1 [Example 77, N-(2,6-dimethylphenyl)-3-(1-methyl-1H-pyrazol-4-yl)-1H-indazole-5-carboxamide]
> 100 nM | Cn1cc(-c2n[nH]c3ccc(C(=O)NCc4c(Cl)cncc4Cl)cc23)cn1 [Example 78, N-((3,5-dichloropyridin-4-yl)methyl)-3-(1-methyl-1H-pyrazol-4-yl)-1H-indazole-5-carboxamide]
> 100 nM | Cc1c[nH]c(-c2n[nH]c3ccc(C(=O)NCC4CCNC4)cc23)n1 (stereo not shown) [Example 79, 3-(4-methyl-1H-imidazol-2-yl)-N-(pyrrolidin-3-ylmethyl)-1H-indazole-5-carboxamide]

IC50 | Structure (SMILES)
> 100 nM | Cc1c[nH]c(-c2n[nH]c3ccc(C(=O)NCc4ncc[nH]4)cc23)n1 [Example 81]
> 100 nM | CNCCNC(=O)c1ccc2[nH]nc(-c3nc(-c4ccccc4)c[nH]3)c2c1 [Example 82, N-(2-(methylamino)ethyl)-3-(4-phenyl-1H-imidazol-2-yl)-1H-indazole-5-carboxamide]
> 100 nM | CNCCNC(=O)c1ccc2[nH]nc(-c3nc4c([nH]3)CN(C)C4)c2c1 [Example 83, 3-(5-methyl-1,4,5,6-tetrahydropyrrolo[3,4-d]imidazol-2-yl)-N-(2-(methylamino)ethyl)-1H-indazole-5-carboxamide]
> 100 nM | CNCCNC(=O)c1ccc2[nH]nc(-c3nc4cc(N5CCN(C)CC5)ccc4[nH]3)c2c1 [Example 84, N-(2-(methylamino)ethyl)-3-(5-(4-methylpiperazin-1-yl)-1H-benzo[d]imidazol-2-yl)-1H-indazole-5-carboxamide]
> 100 nM | CC(Oc1ccc2[nH]nc(-c3cnn(C)c3)c2c1)C1CCOCC1 (stereo not shown) [Example 86, 3-(1-methyl-1H-pyrazol-4-yl)-5-(1-(tetrahydro-2H-pyran-4-yl)ethoxy)-1H-indazole]
> 100 nM | CC(Oc1ccc2[nH]nc(-c3cnn(C)c3)c2c1)c1ccn2ccnc2c1 (stereo not shown) [Example 89, 5-(1-(imidazo[1,2-a]pyridine-7-yl)ethoxy)-3-(1-methyl-1H-pyrazol-4-yl)-1H-indazole]
> 100 nM | Cn1cc(-c2n[nH]c3ccc(OC4CCCc5cnccc54)cc23)cn1 (stereo not shown) [Example 90, 5-((3-(1-methyl-1H-pyrazol-4-yl)-1H-indazol-5-yl)oxy)-5,6,7,8-tetrahydroisoquin oline]
10 to 100 nM | CC(Oc1ccc2[nH]nc(-c3cnn(C)c3)c2c1)c1nccs1 (stereo not shown) [Example 91, 2-(1-((3-(1-methyl-1H-pyrazol-4-yl)-1H-indazol-5-yl)oxy)ethyl)thiazole]
10 to 100 nM | CC(Oc1ccc2[nH]nc(-c3cnn(C)c3)c2c1)c1ccnc2ncccc12 (stereo not shown) [Example 93, 4-(1-((3-(1-methyl-1H-pyrazol-4-yl)-1H-indazol-5-yl)oxy)ethyl)-1,8-naphthyridine]
> 100 nM | CC(Oc1ccc2[nH]nc(-c3cnn(C)c3)c2c1)c1cccc2c1OCCO2 (stereo not shown) [Example 97, 5-(1-(2,3-dihydrobenzo[b][1,4]dioxan-5-yl)ethoxy)-3-(1-methyl-1H-pyrazol-4-yl)-1H-indazole]
1 to 10 nM | CC(Oc1ccc2[nH]nc(-c3cnn(C)c3)c2c1)c1c(F)ccc2ncccc12 (stereo not shown) [Example 102, 6-fluoro-5-(1-((3-(1-methyl-1H-pyrazol-4-yl)-1H-indazol-5-yl)oxy)ethyl)qu inoline]
1 to 10 nM | CC(Oc1ccc2[nH]nc(-c3cnn(C)c3)c2c1)c1cccc2ncn(C)c12 (stereo not shown) [Example 103, 5-(1-(1-methyl-1H-benzo[d]imidazol-7-yl)ethoxy)-3-(1-methyl-1-H-pyrazol-4-yl)-1H-indazole]
1 to 10 nM | CC(Oc1ccc2[nH]nc(-c3cnn(C)c3)c2c1)c1cccc2cnccc12 (stereo not shown) [Example 104, 5-(1-((3-(1-methyl-1H-pyrazol-4-yl)-1H-indazol-5-yl)oxy)ethyl)isoq uinoline]
10 to 100 nM | CC(Oc1ccc2[nH]nc(-c3cnn(C)c3)c2c1)c1cccc2cccnc12 (stereo not shown) [Example 105, 8-(1-((3-(1-methyl-1H-pyrazol-4-yl)-1H-indazol-5-yl)oxy)ethyl)quin oline]
10 to 100 nM | CC(Oc1ccc2[nH]nc(-c3cnn(C)c3)c2c1)c1cccc2occc12 (stereo not shown) [Example 106, 5-(1-(benzofuran-4-yl)ethoxy)-3-(1-methyl-1H-pyrazol-4-yl)-1H-indazole]
> 100 nM | CC(Oc1ccc2[nH]nc(-c3cnn(C)c3)c2c1)c1cncc2ncccc12 (stereo not shown) [Example 108, 5-(1-((3-(1-methyl-1H-pyrazol-4-yl)-1H-indazol-5-yl)oxy)ethyl)-1,7-naphthyridine]
10 to 100 nM | CC(Oc1ccc2[nH]nc(-c3cnn(C)c3)c2c1)c1cccc2scnc12 (stereo not shown) [Example 109]

same assay, conditions: read-out: IC50 (nM) FGFR3; FGFR3 kinase, TR-FRET

Structure (SMILES) | IC50
CNCCN(C)C(=O)c1ccc2[nH]nc(-c3cnn(C)c3)c2c1 [Example 66, N-methyl-3-(1-methyl-1H-pyrazol-4-yl)-N-(2-(methylamino)ethyl) -1H-indazole-5-carboxamide] | > 100 nM
